From the OligoGym collection
Oligonucleotides are written 5' to 3', each unit as a sugar letter and its base; * is a phosphorothioate linkage, no mark a phosphodiester; rarer units and linkages stand in square brackets, end groups in braces. Plain capitals give the bases only. d = 2'-deoxy (DNA); r = 2'-OH (RNA)

The substances below were run against UBE2S (assay: reporter assay of Huesken 2005). Settings: siRNA.
Also: test concentration or dose not given here.

Row | Substance | normalised inhibition (eCFP-eYFP dual reporter) [%]
1 | sense rCrArCrCrCrArArGrGrGrCrUrArCrUrUrCrCrUdTdT / antisense rArGrGrArArGrUrArGrCrCrCrUrUrGrGrGrUrGdGdG | 81.5
2 | sense rCrCrArCrCrCrArArGrGrGrCrUrArCrUrUrCrCdTdT / antisense rGrGrArArGrUrArGrCrCrCrUrUrGrGrGrUrGrGdGdG | 54.7
3 | sense rCrCrArCrCrCrGrArUrGrGrCrArUrCrArArGrGdTdT / antisense rCrCrUrUrGrArUrGrCrCrArUrCrGrGrGrUrGrGdGdT | 47.2
4 | sense rCrCrCrArArCrGrArGrGrArGrGrArCrCrUrCrAdTdT / antisense rUrGrArGrGrUrCrCrUrCrCrUrCrGrUrUrGrGrGdAdA | 54
5 | sense rCrCrCrGrUrCrUrGrCrUrCrArCrArGrArGrArUdTdT / antisense rArUrCrUrCrUrGrUrGrArGrCrArGrArCrGrGrGdCdC | 70.1
6 | sense rCrCrCrUrGrArGrGrGrGrArCrCrCrCrArUrArUdTdT / antisense rArUrArUrGrGrGrGrUrCrCrCrCrUrCrArGrGrGdCdC | 46.5
7 | sense rCrCrGrArArCrGrUrGrGrGrCrGrCrCrArArUrGdTdT / antisense rCrArUrUrGrGrCrGrCrCrCrArCrGrUrUrCrGrGdGdT | 44.9
8 | sense rCrCrUrGrArGrGrGrGrArCrCrCrCrArUrArUrGdTdT / antisense rCrArUrArUrGrGrGrGrUrCrCrCrCrUrCrArGrGdGdC | 25.2
9 | sense rCrCrUrGrCrUrCrUrUrGrGrArGrArArCrUrArCdTdT / antisense rGrUrArGrUrUrCrUrCrCrArArGrArGrCrArGrGdCdG | 70.7
10 | sense rCrGrArGrUrCrUrGrCrArCrUrCrArArCrGrArGdTdT / antisense rCrUrCrGrUrUrGrArGrUrGrCrArGrArCrUrCrGdGdG | 70.6
11 | sense rCrGrCrArGrArCrCrCrArCrCrCrGrArUrGrGrCdTdT / antisense rGrCrCrArUrCrGrGrGrUrGrGrGrUrCrUrGrCrGdGdT | 51.5
12 | sense rCrGrGrUrCrGrGrGrCrCrCrUrGrGrCrCrArGrUdTdT / antisense rArCrUrGrGrCrCrArGrGrGrCrCrCrGrArCrCrGdGdC | 41.5
13 | sense rCrGrUrCrArArCrGrUrGrCrUrCrArArGrArGrGdTdT / antisense rCrCrUrCrUrUrGrArGrCrArCrGrUrUrGrArCrGdCdA | 63.1
14 | sense rCrUrCrCrArCrCrGrArCrCrCrUrGrGrGrGrCrCdTdT / antisense rGrGrCrCrCrCrArGrGrGrUrCrGrGrUrGrGrArGdGdA | 44
15 | sense rCrUrCrGrGrGrCrCrCrGrUrCrUrGrCrUrCrArCdTdT / antisense rGrUrGrArGrCrArGrArCrGrGrGrCrCrCrGrArGdCdT | 55
16 | sense rCrUrGrCrGrUrCrArArCrGrUrGrCrUrCrArArGdTdT / antisense rCrUrUrGrArGrCrArCrGrUrUrGrArCrGrCrArGdAdT | 67.8
17 | sense rCrUrGrCrUrCrArCrArGrArGrArUrCrCrArCrGdTdT / antisense rCrGrUrGrGrArUrCrUrCrUrGrUrGrArGrCrArGdAdC | 54.8
18 | sense rCrUrGrGrCrGrArGrCrGrCrGrArUrArArGrArAdTdT / antisense rUrUrCrUrUrArUrCrGrCrGrCrUrCrGrCrCrArGdCdA | 82.4
19 | sense rCrUrGrGrGrGrArArGrGrArCrUrUrCrCrCrUrGdTdT / antisense rCrArGrGrGrArArGrUrCrCrUrUrCrCrCrCrArGdCdA | 40.4
20 | sense rCrUrUrUrCrCrCrArArCrGrArGrGrArGrGrArCdTdT / antisense rGrUrCrCrUrCrCrUrCrGrUrUrGrGrGrArArArGdAdC | 33.9
21 | sense rGrArCrArCrGrUrArCrUrGrCrUrGrArCrCrArUdTdT / antisense rArUrGrGrUrCrArGrCrArGrUrArCrGrUrGrUrCdGdG | 85.5
22 | sense rGrArCrCrCrArCrCrCrGrArUrGrGrCrArUrCrAdTdT / antisense rUrGrArUrGrCrCrArUrCrGrGrGrUrGrGrGrUrCdTdG | 61.7
23 | sense rGrArGrGrArGrUrArUrGrCrArGrCrUrCrGrGrGdTdT / antisense rCrCrCrGrArGrCrUrGrCrArUrArCrUrCrCrUrCdGdT | 56.7
24 | sense rGrArGrGrGrCrCrCrUrGrArGrGrGrGrArCrCrCdTdT / antisense rGrGrGrUrCrCrCrCrUrCrArGrGrGrCrCrCrUrCdGdA | 44.6
25 | sense rGrArGrGrGrGrCrUrGrArGrGrGrUrCrCrCrArUdTdT / antisense rArUrGrGrGrArCrCrCrUrCrArGrCrCrCrCrUrCdCdC | 45
26 | sense rGrArGrUrArUrGrCrArGrCrUrCrGrGrGrCrCrCdTdT / antisense rGrGrGrCrCrCrGrArGrCrUrGrCrArUrArCrUrCdCdT | 53.4

Row | Substance | normalised inhibition (eCFP-eYFP dual reporter) [%]
27 | sense rGrArGrUrCrUrGrCrArCrUrCrArArCrGrArGrGdTdT / antisense rCrCrUrCrGrUrUrGrArGrUrGrCrArGrArCrUrCdGdG | 71.5
28 | sense rGrCrArCrUrCrArArCrGrArGrGrArGrGrCrGrGdTdT / antisense rCrCrGrCrCrUrCrCrUrCrGrUrUrGrArGrUrGrCdAdG | 48.5
29 | sense rGrCrArCrUrGrArArGrCrUrUrCrCrUrCrCrArCdTdT / antisense rGrUrGrGrArGrGrArArGrCrUrUrCrArGrUrGrCdCdA | 58.5
30 | sense rGrCrCrArGrUrGrGrCrArCrUrGrArArGrCrUrUdTdT / antisense rArArGrCrUrUrCrArGrUrGrCrCrArCrUrGrGrCdCdA | 57.9
31 | sense rGrCrCrCrArGrCrGrGrCrArGrGrGrCrCrGrArAdTdT / antisense rUrUrCrGrGrCrCrCrUrGrCrCrGrCrUrGrGrGrCdCdC | 42
32 | sense rGrCrCrUrCrCrCrCrArCrCrCrArArGrGrGrCrUdTdT / antisense rArGrCrCrCrUrUrGrGrGrUrGrGrGrGrArGrGrCdAdG | 46.3
33 | sense rGrCrCrUrGrCrUrCrUrUrGrGrArGrArArCrUrAdTdT / antisense rUrArGrUrUrCrUrCrCrArArGrArGrCrArGrGrCdGdG | 76
34 | sense rGrCrUrGrGrGrGrArArGrGrArCrUrUrCrCrCrUdTdT / antisense rArGrGrGrArArGrUrCrCrUrUrCrCrCrCrArGrCdAdG | 53.9
35 | sense rGrGrArGrArArCrUrArCrGrArGrGrArGrUrArUdTdT / antisense rArUrArCrUrCrCrUrCrGrUrArGrUrUrCrUrCrCdAdA | 56.3
36 | sense rGrGrCrArUrCrArArGrGrUrCrUrUrUrCrCrCrAdTdT / antisense rUrGrGrGrArArArGrArCrCrUrUrGrArUrGrCrCdAdT | 57.3
37 | sense rGrGrCrCrArArGrArArGrCrArUrGrCrUrGrGrCdTdT / antisense rGrCrCrArGrCrArUrGrCrUrUrCrUrUrGrGrCrCdAdT | 57.2
38 | sense rGrGrCrCrGrCrCrUrGrCrUrCrUrUrGrGrArGrAdTdT / antisense rUrCrUrCrCrArArGrArGrCrArGrGrCrGrGrCrCdCdG | 69.4
39 | sense rGrGrCrUrArCrUrUrCrCrUrGrArCrCrArArGrAdTdT / antisense rUrCrUrUrGrGrUrCrArGrGrArArGrUrArGrCrCdCdT | 91.7
40 | sense rGrGrGrCrCrCrUrGrGrCrCrArGrUrGrGrCrArCdTdT / antisense rGrUrGrCrCrArCrUrGrGrCrCrArGrGrGrCrCrCdGdA | 43
41 | sense rGrGrGrCrCrGrArArGrCrCrGrGrUrCrGrGrGrCdTdT / antisense rGrCrCrCrGrArCrCrGrGrCrUrUrCrGrGrCrCrCdTdG | 36.4
42 | sense rGrGrGrCrUrGrArGrGrGrUrCrCrCrArUrGrGrCdTdT / antisense rGrCrCrArUrGrGrGrArCrCrCrUrCrArGrCrCrCdCdT | 45.7
43 | sense rGrGrGrGrCrUrGrArGrGrGrUrCrCrCrArUrGrGdTdT / antisense rCrCrArUrGrGrGrArCrCrCrUrCrArGrCrCrCrCdTdC | 42.8
44 | sense rGrGrUrGrArCrGrArCrArCrUrGrArCrCrGrCrAdTdT / antisense rUrGrCrGrGrUrCrArGrUrGrUrCrGrUrCrArCrCdTdC | 88.7
45 | sense rGrUrArUrGrCrArGrCrUrCrGrGrGrCrCrCrGrUdTdT / antisense rArCrGrGrGrCrCrCrGrArGrCrUrGrCrArUrArCdTdC | 47
46 | sense rGrUrCrArCrCrArUrCrGrArGrGrGrCrCrCrUrGdTdT / antisense rCrArGrGrGrCrCrCrUrCrGrArUrGrGrUrGrArCdCdT | 45.1
47 | sense rGrUrGrGrGrCrGrCrCrArArUrGrGrCrGrArGrAdTdT / antisense rUrCrUrCrGrCrCrArUrUrGrGrCrGrCrCrCrArCdGdT | 54.4
48 | sense rUrArArCrCrCrCrGrArGrUrCrUrGrCrArCrUrCdTdT / antisense rGrArGrUrGrCrArGrArCrUrCrGrGrGrGrUrUrAdGdG | 39.5
49 | sense rUrCrArCrCrArUrCrGrArGrGrGrCrCrCrUrGrAdTdT / antisense rUrCrArGrGrGrCrCrCrUrCrGrArUrGrGrUrGrAdCdC | 35.9
50 | sense rUrCrCrArCrCrCrUrArArCrCrCrCrGrArGrUrCdTdT / antisense rGrArCrUrCrGrGrGrGrUrUrArGrGrGrUrGrGrAdTdC | 39.4
51 | sense rUrCrCrCrArArCrGrArGrGrArGrGrArCrCrUrCdTdT / antisense rGrArGrGrUrCrCrUrCrCrUrCrGrUrUrGrGrGrAdAdA | 35.7
52 | sense rUrCrCrCrCrArCrCrCrArArGrGrGrCrUrArCrUdTdT / antisense rArGrUrArGrCrCrCrUrUrGrGrGrUrGrGrGrGrAdGdG | 48.9
